Counter-ions that a name gives are not always drawn.

The results in this text go back to patent publication USRE38257E1, “Piperdine derivatives and hypotensives containing the same” (Ajinomoto Co., Inc., priority 1988, dated 2003).

For the assay, the system named is male spontaneously hypertensive rats. The assay is described as follows: Decrease in systolic blood pressure in spontaneously hypertensive rats after intravenous bolus injection, indirect (tail-cuff) method. The class given is in vivo, rat. The conditions noted are these: for Decrease in systolic blood pressure (mmHg) time after administration (hour) 0.5: 0.5 hour after administration; for Decrease in systolic blood pressure (mmHg) time after administration (hour) 4: 4 hours after administration. Here is the method:
As test animals, four male spontaneously hypertensive rats (weight 400 to 440 g) that were sufficiently adapted for feeding and in which hypertension was confirmed were used.
Physiological saline aqueous solution containing 2.5% Nicolle and 2.5% ethanol of sample was intravenously administered by bolus injection at a dose of 1 ml per 1 kg of body weight. Systolic blood pressure after administration was measured by the indirect (tail-cuff) method.

The mark [1] stands for this setting: dose 10 mg/kg i.v. bolus, hydrochloride, 10 mg/kg.

Take `C1=Cc2ccccc2C(=C2CCN(CCCCN3CCCCC3)CC2)c2ccccc21` [Example 209, 1-(4-(4-(5H-Dibenzo[a,d]cyclohepten-5-ylidene)-1-piperidinyl)butyl)piperidine dihydroxybutane hydrochloride]: where the note is “dose 10 mg/kg i.v. bolus”, the “Decrease in systolic blood pressure (mmHg) time after administration (hour) 0.5” value (“Decrease in systolic blood pressure … (hour) 0.5” below) is −49 mmHg and the “Decrease in systolic blood pressure (mmHg) time after administration (hour) 4” value (from here on “Decrease in systolic blood pressure … (hour) 4”) is listed as −13 mmHg.
In the same order, the values of `Cl.N#Cc1cccc(CN2CCC(=C3c4ccccc4C=Cc4ccccc43)CC2)c1` [Example 159, 1-(3-Cyanobenzyl)-4-(5H-dibenzo[a,d]cyclohepten-5-ylidene)piperidine hydrochloride] are −27 mmHg and −12 mmHg.
On to `CCCC(=O)Nc1ccc(C=CCN2CCC(=C3c4ccccc4C=Cc4ccccc43)CC2)cc1.Cl` [Example 381, 1-(4-Butanoylaminocinnamyl)-4-(5H-Dibenzo[a,d]cyclohepten-5-ylidene)piperidine hydrochloride], for which the “Decrease in systolic blood pressure … (hour) 0.5” value (dose 3 mg/kg i.v. bolus) was −136 mmHg.
On to `Cl.N#CCCCN1CCC(=C2c3ccccc3C=Cc3ccccc32)CC1` [Example 165, 1-Cyano-3-[4-(5H-dibenzo[a,d]cyclohepten-5-ylidene)-1-piperidinyl)propane hydrochloride], for which, under setting [1], the “Decrease in systolic blood pressure … (hour) 0.5” value was −22 mmHg and the “Decrease in systolic blood pressure … (hour) 4” value was 12 mmHg.
In the case of `C1=Cc2ccccc2C(=C2CCNCC2)c2ccccc21.Cl` [Example 349, 4-(5H-Dibenzo[a,d]cyclohepten-5-ylidene)-1-piperidine hydrochloride], under “dose 1 mg/kg i.v. bolus”, the “Decrease in systolic blood pressure … (hour) 0.5” value is recorded as −48 mmHg and the “Decrease in systolic blood pressure … (hour) 4” value is listed as −43 mmHg.
In the case of `C1=Cc2ccccc2C(=C2CCN(CCCc3ccccc3)CC2)c2ccccc21.Cl` [Example 14, 3-(4-(5H-Dibenzo[a,d]cyclohepten-5-ylidene)-1-piperidinyl)-1-phenylpropane hydrochloride], under “dose 10 mg/kg i.v. bolus”, the “Decrease in systolic blood pressure … (hour) 0.5” value was −105 mmHg and the “Decrease in systolic blood pressure … (hour) 4” value is −10 mmHg.
As for `COc1ccc(CCCCN2CCC(=C3c4ccccc4C=Cc4ccccc43)CC2)cc1OC.Cl` [Example 221, 4-(5H-Dibenzo[a,d]cyclohepten-5-ylidene)-1-(4-(3′,4′-dimethoxyphenyl)butyl)piperidine hydrochloride], where the note is “dose 10 mg/kg i.v. bolus”, the “Decrease in systolic blood pressure … (hour) 0.5” value is −70 mmHg and the “Decrease in systolic blood pressure … (hour) 4” value was −13 mmHg.
For `Cl.OC1CCC(CCCCN2CCC(=C3c4ccccc4C=Cc4ccccc43)CC2)CC1` (stereo not drawn) [Example 296, 1-(1-(4-Hydroxy)cyclohexyl)-4-(4-(5H-dibenzo[a,d]cyclohepten-5-ylidene)-1-piperidinyl)butane hydrochloride] the same measures were −109 mmHg and −14 mmHg.
As to `C1=Cc2ccccc2C(=C2CCN(CCCCC3CCCCC3)CC2)c2ccccc21.Cl` [Example 10, 1-Cyclohexyl-4-(4-(5H-dibenzo[a,d]cyclohepten-5-ylidene)-1-piperidinyl)butane hydrochloride], under setting [1], the “Decrease in systolic blood pressure … (hour) 0.5” value is −129 mmHg and the “Decrease in systolic blood pressure … (hour) 4” value is −21 mmHg.
Turning to `COc1cccc(CN2CCC(=C3c4ccccc4CCc4ccccc43)CC2)c1.Cl` [Example 184, 4-(10,11-dihydro-5H-dibenzo[a,d]cyclohepten-5-ylidene)-1-(3-methoxybenzyl)piperidine hydrochloride], for the setting “dose 10 mg/kg i.v. bolus”, the “Decrease in systolic blood pressure … (hour) 0.5” value is given as −16 mmHg and the “Decrease in systolic blood pressure … (hour) 4” value is recorded as −4 mmHg.
For `O=C(CCCC1CCCCC1)N1CCC(=C2c3ccccc3C=Cc3ccccc32)CC1` [Example 157, 1-(4-Cyclohexylbutanoyl)-4-(5H-dibenzo[a,d]cyclohepten-5-ylidene)piperidine], under “dose 10 mg/kg i.v. bolus”, the “Decrease in systolic blood pressure … (hour) 0.5” value is given as −32 mmHg and the “Decrease in systolic blood pressure … (hour) 4” value is −13 mmHg.
For `C1=Cc2ccccc2C(=C2CCN(CCc3ccccc3)CC2)c2ccccc21.Cl` [Example 13, 2-(4-(5H-Dibenzo[a,d]cyclohepten-5-ylidene)-1-piperidinyl)-1-phenylethane hydrochloride] the same measures were −47 mmHg and 4 mmHg.
Take `Cl.O=C1CCCCC1CCCCN1CCC(=C2c3ccccc3C=Cc3ccccc32)CC1` (stereo not drawn) [Example 215, 2-(4-(4-(5H-Dibenzo[a,d]cyclohepten-5-ylidene)-1-piperidinyl)butyl)cyclohexanone hydrochloride]: for the setting “dose 10 mg/kg i.v. bolus”, the “Decrease in systolic blood pressure … (hour) 0.5” value is recorded as −128 mmHg and the “Decrease in systolic blood pressure … (hour) 4” value is −14 mmHg.
For `CCOC(=O)C(CCCN1CCC(=C2c3ccccc3C=Cc3ccccc32)CC1)C1CCCCC1.Cl` (stereo not drawn) [Example 220, Ethyl 2-cyclohexyl-5-(4-(5H-Dibenzo[a,d]cyclohepten-5-ylidene)-1-piperidinyl)valerate hydrochloride], under “dose 10 mg/kg i.v. bolus”, the “Decrease in systolic blood pressure … (hour) 0.5” value was −148 mmHg and the “Decrease in systolic blood pressure … (hour) 4” value was −54 mmHg.
With `Cl.Oc1cccc(C=CCN2CCC(=C3c4ccccc4C=Cc4ccccc43)CC2)c1` [Example 367, 4-(5H-Dibenzo[a,d]cyclohepten-5-ylidene)-1-(3-hydroxycinnamyl)piperidine hydrochloride], under “dose 10 mg/kg i.v. bolus”, the “Decrease in systolic blood pressure … (hour) 0.5” value is given as −98 mmHg and the “Decrease in systolic blood pressure … (hour) 4” value is listed as −63 mmHg.
In the same order, the values of `C1=Cc2ccccc2C(=C2CCN(Cc3ccccc3)CC2)c2ccccc21.Cl` [Example 12, 1-Benzyl-4-(5H-dibenzo[a,d]cyclohepten-5-ylidene)piperidine hydrochloride] are −27 mmHg and 1 mmHg.
For `C1=Cc2ccccc2C(=C2CCN(CC3CCc4ccccc4C3)CC2)c2ccccc21` (stereo not drawn) [Example 225, 4-(5H-Dibenzo[a,d]cyclohepten-5-ylidene)-1-(1,2,3,4-tetrahydro-2-naphthylmethyl)piperidine] the same measures were −115 mmHg and −31 mmHg.
In the case of `CC(=O)Oc1ccc(C=CCN2CCC(=C3c4ccccc4C=Cc4ccccc43)CC2)cc1.Cl` [Example 364, 1-(4-Acetoxycinnamyl)-4-(5H-Dibenzo[a,d]cyclohepten-5-ylidene)piperidine hydrochloride], the “Decrease in systolic blood pressure … (hour) 0.5” value (dose 1 mg/kg i.v. bolus) is on record as −113 mmHg.
For `Cl.N#Cc1ccccc1CN1CCC(=C2c3ccccc3C=Cc3ccccc32)CC1` [Example 158, 1-(2-Cyanobenzyl)-4-(5H-dibenzo[a,d]cyclohepten-5-ylidene)piperidine hydrochloride], where the note is “dose 10 mg/kg i.v. bolus”, the “Decrease in systolic blood pressure … (hour) 0.5” value is on record as −8 mmHg and the “Decrease in systolic blood pressure … (hour) 4” value stood at 7 mmHg.
For `Cl.Cl.Nc1ccc(CCCCN2CCC(=C3c4ccccc4C=Cc4ccccc43)CC2)cc1` [Example 195, 1-(4-(4-Aminophenyl)butyl)-4-(5H-dibenzo[a,d]cyclohepten-5-ylidine)piperidine dihydrochloride] the same measures were −100 mmHg and −51 mmHg.
On to `COc1ccc(C(=O)CCCN2CCC(=C3c4ccccc4CSc4ccccc43)CC2)cc1OC.Cl` [Example 229, 4-(4-(5H-Dibenzo[a,d]thiepin-5-ylidene)-1-piperidinyl)-3+,4+-dimethoxybutyrophenone hydrochloride], for which, under “dose 3 mg/kg i.v. bolus”, the “Decrease in systolic blood pressure … (hour) 0.5” value is given as −77 mmHg and the “Decrease in systolic blood pressure … (hour) 4” value is −14 mmHg.
As to `COc1ccc2c(c1OC)CCC(CCN1CCC(=C3c4ccccc4C=Cc4ccccc43)CC1)C2.Cl` (stereo not drawn) [Example 318, 2-(3-(4-(5H-Dibenzo[a,d]cyclohepten-5-ylidene)-1-piperidinyl)-1-ethyl)-5,6-dimethoxy-1,2,34-tetrahydronaphthalene hydrochloride], for the setting “dose 10 mg/kg i.v. bolus”, the “Decrease in systolic blood pressure … (hour) 0.5” value was −83 mmHg and the “Decrease in systolic blood pressure … (hour) 4” value is −57 mmHg.
For `COC(=O)C1(CCCN2CCC(=C3c4ccccc4C=Cc4ccccc43)CC2)CCCCC1.Cl` [Example 314, 1-(3-(4-(5H-Dibenzo[a,d]cyclohepten-5-ylidene)-1-piperidinyl)-1-propyl)-1-methoxycarbonylcyclohexane hydrochloride] the same measures were −61 mmHg and −11 mmHg.
In the same order, the values of “4-(4-(5H-Dibenzo[a,d]cyclohepten-5-ylidene)-1-piperidinyl)-4′-trimethoxybutyrophenone hydrochloride [Example 172]” are −115 mmHg and −25 mmHg.
With `Cl.OC(CCN1CCC(=C2c3ccccc3C=Cc3ccccc32)CC1)c1ccc(F)cc1` (stereo not drawn) [Example 107, 3-(4-(5H-Dibenzo[a,d]cyclohepten-5-ylidene)-1-piperidinyl)-1-hydroxy-1-(4-fluorophenyl)propane hydrochloride], under “dose 10 mg/kg i.v. bolus”, the “Decrease in systolic blood pressure … (hour) 0.5” value is reported as −88 mmHg and the “Decrease in systolic blood pressure … (hour) 4” value was −11 mmHg.
